From patent US20230190760A1, “ADVANTAGEOUS THERAPIES FOR DISORDERS MEDIATED BY IKAROS OR AIOLOS” (C4 Therapeutics, Inc., priority 2020, published 2023)

Key:
MM.1S = test: Anti-proliferative activity, 96 hours; details: Homo sapiens, MM1.S
[1] = system: hematological cancer cell lines; test: Anti-proliferative activity in hematological cancer cell lines (whole panel); format: cell-based; details: in multiple cell lines, 96 hours
[2] = system: anaplastic large cell lymphoma (ALCL) cell lines; test: Anti-cancer activity in ALCL cell lines; format: cell-based; details: four out of six cell lines were responsive; read-out: mean IC50 among the responsive lines
H929 PomR tumors = test: Pomalidomide resistant H929 PomR xenograft; format: in vivo, mice; details: 100 μg/kg/day PO
Description: (§1) Data are expressed as MTV±SEM.

DOHH-2 = test: Anti-proliferative activity, 96 hours; details: Homo sapiens, DOHH-2, 96 h
RPMI-8226 tumors = test: RPMI-8226 multiple myeloma xenograft, CB17 SCID mice (Example 13); format: in vivo
Description: Compound 1 efficacy in two multiple myeloma cell lines (NC-H929) and (RPMI-8226) was evaluated at four different doses: 3 μg/kg, 10 μg/kg, 30 μg/kg, and 100 μg/kg. Compound 1 was administered QD (every day) orally (PO). […]
Statistical analysis was performed using two-way analysis of variance (ANOVA). Data are expressed as MTV±SEM.

KMM-1 = test: Anti-proliferative activity, 96 hours; details: KMM-1, 96 h
IKZF3 = target: T1, IKZF3 (Homo sapiens, UniProt Q96SW2+Q9UKT9); test: NCI-H929 xenograft pharmacodynamic and pharmacokinetic study (Example 40); format: in vivo, mice
T1 construct: from tissue; host or cells: NCI-H929 MM xenograft tumours in female NOD SCID mice
Description: A xenograft study was conducted in female NOD SCID mice bearing NCI-H929 MM tumors. Female SCID mice were inoculated subcutaneously in the right flank with 10×10^6 tumors cells in 0.2 mL of PBS supplemented with matrigel (PBS:matrigel=1:1). Tumor volume was measured twice weekly in two dimensions using calipers, and volume was calculated using the formula: (w2×l)/2=mm^3, assuming 1 mg is equivalent to 1 mm^3 of tumor volume.
For the pharmacodynamic and pharmacokinetic portion of this study 3 mice were sacrificed per time point with tumors and plasma harvested, with mice in the vehicle control group being sacrificed 24 post single dose. […] Tumors were then mechanically homogenized, and protein extracted using RIPA buffer (Sigma Aldrich). Protein concentration was quantified using a Pierce™ BCA Protein Assay Kit, samples were reduced, and equal protein amounts were then loaded onto a western blot gel for analysis. […] The intensity of individual bands was measured for data analysis using Image Studio NIR software. Protein expression was quantitated in relation to the reference protein, GAPDH, to control for total protein concentration. […] Data is represented as percent of target present in the vehicle control and normalized for total protein. […]

IKZF1 [3] = target: T2, IKZF1 (Homo sapiens, UniProt Q13422+Q96SW2)
Description: Endogenous expression of IKZF1 in NCIH929 cells was determined by addition of N-terminal HiBiT tag to the NCIH929 cell line using CRISPR-Cas9. Briefly, test compound was added to 384-well plates at a top concentration of 1 μM with 10 points, half log titration in duplicates. NCIH929 cells expressing HiBiT-tagged IKZF1 were seeded into the 384-well plates in RPMI medium containing 10% FBS and 0.05 mM 2-mercaptoethanol at a cell density of 15000 cells per well. Cells treated in the absence of the test compound were the negative control and wells containing media only were the positive control. Following compound treatment, cells were incubated at 37° C. with 5% CO2 for 1.5 hr. HiBiT signal was determined using Nano-Glo™ HiBiT Lytic Assay System (Promega, N3050) and luminescence was acquired on EnVision™ Multilabel Reader (PerkinElmer, Santa Clara, Calif., USA). % IKZF1 remaining was determined by normalizing the signal with positive and negative controls on the same microtiter plate. […] Curve fit and IC50 determination was performed by 4 parametric regression analysis.
NCIH929 cells expressing HiBiT-tagged IKZF1 were seeded into the 384-well plates in RPMI medium containing 10% FBS and 0.05 mM 2-mercaptoethanol at a cell density of 15000 cells per well. Cells treated in the absence of the test compound were the negative control and wells containing media only were the positive control. Following compound treatment, cells were incubated at 37° C. with 5% CO2 for 1 or 2 hr. HiBiT signal was determined using Nano-Glo™ HiBiT Lytic Assay System (Promega, N3050) and luminescence was acquired on EnVision™ Multilabel Reader (PerkinElmer, Santa Clara, Calif., USA). % IKZF1 remaining was determined by normalizing the signal with positive and negative controls on the same microtiter plate. Curve fit and IC50 determination was performed by 4 parametric regression analysis.

[4] = system: cutaneous T-cell lymphoma (CTCL) cell lines; test: Anti-cancer activity in CTCL cell lines; format: cell-based; details: three of four cell lines tested were responsive, read-out: mean IC50 among the responsive lines
KI-JK ALCL tumors = test: KI-JK ALCL xenograft efficacy (Example 20); format: in vivo, mice; details: 100 μg/kg PO daily for 21 days
Description: A xenograft study was conducted in female NOD SCID mice bearing KI-JK ALCL tumors.
as §1

[5] = target: G1 to S Phase Transition 1 (GSPT1) (Homo sapiens, UniProt P15170); test: Targeted cell-based assay for GSPT1; details: up to 10 μM
IKZF1 [6] = target: T3, IKZF1 (Mus musculus, UniProt Q03267); test: Ex vivo IKZF1 degradation in PBMC, mouse; format: cell-based; details: mouse cells
T3 construct: from tissue; host or cells: peripheral blood cells (PBMC) of mice, ex vivo
Description: IKZF1/3 are not degraded in mouse cells treated with thalidomide or its IMiD® analogs because of a single amino acid difference in mouse cereblon compared to human cereblon that causes steric hindrance and prevents recruitment of IKZF1/3. Ex vivo studies were performed in peripheral blood cells (PBMC) of mice, rats, dogs, and monkeys to identify relevant species for IND enabling-toxicity studies based on the degree of IKZF1 degradation by Compound 1. IKZF1 was not degraded in mouse or rat cells by Compound 1, thus, while rat could not be considered a pharmacologically relevant species for human risk assessment, it was chosen as the rodent species for toxicological studies because it is widely used in toxicity testing and a substantial historical toxicology database is available. […] Therefore, cynomolgus monkey was chosen for non-rodent toxicological studies.

SU-DHL-1 = test: Anti-proliferative activity, 96 hours; details: Homo sapiens, SU-DHL-1, 96 h
[7] = system: 8 multiple myeloma cell lines; test: Growth of 8 multiple myeloma cell lines (CellTiter-Glo, 96 hour); format: cell-based
IKZF1 [8] = target: T2, IKZF1; test: Ikaros degradation in Ki-JK cells by flow cytometry; format: cell-based; design: host or cells: Ki-JK cells
Description: Flow cytometry was used to assess the Ikaros degradation characteristics and evaluate the mechanism of Compound 1. […] The cells were prepared for staining using the FOXP3 Fix/Perm Buffer Set (BioLegend, 421403) according to the manufacturer's instructions at 1.5, 3, and 6 hours. IKZF1-AF488 (564867) and IgG1-488 (557782) (BD Biosciences) were diluted 1:100 in Perm Buffer. Signal was detected using the Guava® easyCyte™ Flow Cytometer. […] Degradation was not observed with the combination of Compound 1 and bortezomib or MLN-4924.

Farage = test: Anti-proliferative activity, 96 hours
[9] = system: NCI-H929 multiple myeloma tumors; test: NCI-H929 multiple myeloma xenograft, NOD SCID mice (Example 31); format: in vivo
Description: Compound 1 was administered QD (every day) orally (PO). […]
For the NCI-H929 cells, the xenograft study was conducted in female NOD SCID mice bearing NCI-H929 multiple myeloma tumors.
After the dosing period, tumor growth was monitored for 45 days. […] After the initial 21 days of dosing, all Compound 1 groups were monitored for tumor growth. The 10 μg/kg group was removed from study on 39. The 30 μg/kg group tumors began to regrow, and PO daily dosing resumed starting on day 40 for an additional 23 days. Statistical analysis was performed using two-way analysis of variance (ANOVA). Data are expressed as MTV±SEM.

DL40 = test: Anti-proliferative activity, 96 hours
TMD8 = test: Anti-proliferative activity, 96 hours; details: Homo sapiens, TMD8, 96 h
HH = test: Anti-proliferative activity, 96 hours; details: Homo sapiens
[10] = all eight multiple myeloma cell lines

T2 sequence (Q13422 whole entry): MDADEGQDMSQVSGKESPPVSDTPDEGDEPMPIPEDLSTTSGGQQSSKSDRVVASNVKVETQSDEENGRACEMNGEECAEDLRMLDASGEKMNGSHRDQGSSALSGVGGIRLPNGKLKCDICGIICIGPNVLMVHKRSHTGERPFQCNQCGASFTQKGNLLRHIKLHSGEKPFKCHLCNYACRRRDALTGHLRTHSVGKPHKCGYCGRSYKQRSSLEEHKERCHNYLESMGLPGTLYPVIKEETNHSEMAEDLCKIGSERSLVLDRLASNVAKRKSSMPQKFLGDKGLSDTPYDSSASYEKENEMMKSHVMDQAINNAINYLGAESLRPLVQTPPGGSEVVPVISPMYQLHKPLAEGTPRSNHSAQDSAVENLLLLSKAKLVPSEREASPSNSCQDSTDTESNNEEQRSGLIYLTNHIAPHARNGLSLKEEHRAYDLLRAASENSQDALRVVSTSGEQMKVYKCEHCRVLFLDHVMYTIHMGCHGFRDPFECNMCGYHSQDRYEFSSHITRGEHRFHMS
T2 sequence (Q96SW2 whole entry): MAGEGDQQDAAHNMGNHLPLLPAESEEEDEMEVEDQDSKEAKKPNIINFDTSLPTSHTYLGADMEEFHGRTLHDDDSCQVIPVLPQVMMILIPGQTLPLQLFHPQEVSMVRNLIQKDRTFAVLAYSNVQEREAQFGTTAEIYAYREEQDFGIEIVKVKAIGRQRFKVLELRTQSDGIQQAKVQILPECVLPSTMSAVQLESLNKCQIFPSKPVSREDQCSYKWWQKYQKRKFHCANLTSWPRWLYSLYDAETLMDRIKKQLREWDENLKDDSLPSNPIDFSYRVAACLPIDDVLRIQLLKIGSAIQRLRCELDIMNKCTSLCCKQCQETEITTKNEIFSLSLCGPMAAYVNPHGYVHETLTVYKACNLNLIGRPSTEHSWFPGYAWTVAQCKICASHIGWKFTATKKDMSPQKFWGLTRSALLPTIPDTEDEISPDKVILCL
T2 sequence (Q16531 2-1140 partner limits assumed): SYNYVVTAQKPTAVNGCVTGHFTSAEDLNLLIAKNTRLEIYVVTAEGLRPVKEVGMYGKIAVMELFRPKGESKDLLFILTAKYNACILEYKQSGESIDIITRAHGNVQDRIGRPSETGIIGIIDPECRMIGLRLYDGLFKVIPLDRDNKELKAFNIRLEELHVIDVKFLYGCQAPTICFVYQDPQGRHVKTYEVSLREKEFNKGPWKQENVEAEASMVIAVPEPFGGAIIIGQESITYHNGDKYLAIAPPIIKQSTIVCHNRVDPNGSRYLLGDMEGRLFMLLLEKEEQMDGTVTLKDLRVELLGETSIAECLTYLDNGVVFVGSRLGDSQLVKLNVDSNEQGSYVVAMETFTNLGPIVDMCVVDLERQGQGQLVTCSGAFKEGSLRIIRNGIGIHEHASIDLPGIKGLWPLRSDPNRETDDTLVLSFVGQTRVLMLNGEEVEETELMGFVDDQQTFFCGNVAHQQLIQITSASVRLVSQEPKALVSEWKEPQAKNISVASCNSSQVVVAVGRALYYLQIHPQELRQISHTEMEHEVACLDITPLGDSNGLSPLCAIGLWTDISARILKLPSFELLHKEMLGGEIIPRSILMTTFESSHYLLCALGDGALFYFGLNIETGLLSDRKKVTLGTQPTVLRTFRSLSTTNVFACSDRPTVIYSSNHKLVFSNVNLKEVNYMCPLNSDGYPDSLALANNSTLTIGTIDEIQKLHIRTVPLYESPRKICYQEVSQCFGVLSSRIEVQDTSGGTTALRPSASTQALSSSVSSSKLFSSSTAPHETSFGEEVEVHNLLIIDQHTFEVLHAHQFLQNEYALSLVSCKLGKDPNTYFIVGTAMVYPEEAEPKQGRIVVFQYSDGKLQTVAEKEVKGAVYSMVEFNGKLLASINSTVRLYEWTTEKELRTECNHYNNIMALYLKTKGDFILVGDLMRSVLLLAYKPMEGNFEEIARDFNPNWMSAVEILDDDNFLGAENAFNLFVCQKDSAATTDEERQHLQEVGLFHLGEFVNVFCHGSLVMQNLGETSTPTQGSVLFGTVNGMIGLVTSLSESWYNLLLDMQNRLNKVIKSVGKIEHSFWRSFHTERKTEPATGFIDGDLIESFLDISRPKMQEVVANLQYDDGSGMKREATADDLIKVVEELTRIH
T1 sequence (Q9UKT9 whole entry): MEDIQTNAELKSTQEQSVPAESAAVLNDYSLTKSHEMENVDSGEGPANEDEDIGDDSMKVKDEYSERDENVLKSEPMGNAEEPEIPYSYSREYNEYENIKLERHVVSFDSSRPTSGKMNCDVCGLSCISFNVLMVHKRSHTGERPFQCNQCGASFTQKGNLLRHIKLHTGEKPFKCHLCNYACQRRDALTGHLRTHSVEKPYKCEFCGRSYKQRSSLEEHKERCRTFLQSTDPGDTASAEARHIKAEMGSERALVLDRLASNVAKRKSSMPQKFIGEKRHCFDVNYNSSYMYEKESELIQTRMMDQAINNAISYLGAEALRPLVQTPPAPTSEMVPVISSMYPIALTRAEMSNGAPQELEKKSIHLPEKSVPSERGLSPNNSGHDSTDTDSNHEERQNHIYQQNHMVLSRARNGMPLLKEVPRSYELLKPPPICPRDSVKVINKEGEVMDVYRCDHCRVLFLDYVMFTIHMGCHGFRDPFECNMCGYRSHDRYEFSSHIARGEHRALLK
T1 sequence (Q96SW2 whole entry): as the sequence (Q96SW2 whole entry) above
T1 sequence (Q16531 2-1140 partner limits assumed): as the sequence (Q16531 2-1140 partner limits assumed) above
G1 to S Phase Transition 1 (GSPT1), sequence (Q96SW2 whole entry partner, species assumed): as the sequence (Q96SW2 whole entry) above
G1 to S Phase Transition 1 (GSPT1), sequence (Q16531 2-1140 partner limits assumed, species assumed): as the sequence (Q16531 2-1140 partner limits assumed) above
G1 to S Phase Transition 1 (GSPT1), sequence (P15170 whole entry, species assumed): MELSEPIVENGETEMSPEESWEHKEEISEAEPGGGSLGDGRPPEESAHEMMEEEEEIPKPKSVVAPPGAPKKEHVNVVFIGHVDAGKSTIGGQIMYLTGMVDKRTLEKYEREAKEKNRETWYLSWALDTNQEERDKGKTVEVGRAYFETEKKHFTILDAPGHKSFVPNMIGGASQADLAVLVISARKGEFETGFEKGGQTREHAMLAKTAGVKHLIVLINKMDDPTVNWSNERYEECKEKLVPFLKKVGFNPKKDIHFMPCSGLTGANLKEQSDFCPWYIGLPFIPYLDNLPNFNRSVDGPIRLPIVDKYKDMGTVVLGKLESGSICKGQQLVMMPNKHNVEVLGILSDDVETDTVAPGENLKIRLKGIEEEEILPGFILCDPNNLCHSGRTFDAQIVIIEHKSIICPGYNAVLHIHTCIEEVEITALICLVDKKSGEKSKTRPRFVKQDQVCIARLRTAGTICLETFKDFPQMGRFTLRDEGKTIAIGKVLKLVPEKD
T3 sequence (Q8C7D2 whole entry partner): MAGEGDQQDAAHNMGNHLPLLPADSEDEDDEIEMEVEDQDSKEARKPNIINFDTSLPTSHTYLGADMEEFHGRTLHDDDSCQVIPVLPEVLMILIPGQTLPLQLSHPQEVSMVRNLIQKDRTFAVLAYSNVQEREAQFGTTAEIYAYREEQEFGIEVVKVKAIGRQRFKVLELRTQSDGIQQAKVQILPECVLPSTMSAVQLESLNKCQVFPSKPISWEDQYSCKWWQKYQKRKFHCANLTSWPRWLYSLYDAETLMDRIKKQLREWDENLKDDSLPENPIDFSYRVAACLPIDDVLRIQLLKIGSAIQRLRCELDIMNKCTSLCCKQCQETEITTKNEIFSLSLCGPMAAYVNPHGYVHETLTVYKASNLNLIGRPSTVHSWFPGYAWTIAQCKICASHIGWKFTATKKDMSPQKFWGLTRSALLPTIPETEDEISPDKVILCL
T3 sequence (Q3U1J4 2-1140 partner limits assumed): as the sequence (Q16531 2-1140 partner limits assumed) above, with N417G, A494G, T744S, T1019A counted along it
T3 sequence (Q03267 whole entry): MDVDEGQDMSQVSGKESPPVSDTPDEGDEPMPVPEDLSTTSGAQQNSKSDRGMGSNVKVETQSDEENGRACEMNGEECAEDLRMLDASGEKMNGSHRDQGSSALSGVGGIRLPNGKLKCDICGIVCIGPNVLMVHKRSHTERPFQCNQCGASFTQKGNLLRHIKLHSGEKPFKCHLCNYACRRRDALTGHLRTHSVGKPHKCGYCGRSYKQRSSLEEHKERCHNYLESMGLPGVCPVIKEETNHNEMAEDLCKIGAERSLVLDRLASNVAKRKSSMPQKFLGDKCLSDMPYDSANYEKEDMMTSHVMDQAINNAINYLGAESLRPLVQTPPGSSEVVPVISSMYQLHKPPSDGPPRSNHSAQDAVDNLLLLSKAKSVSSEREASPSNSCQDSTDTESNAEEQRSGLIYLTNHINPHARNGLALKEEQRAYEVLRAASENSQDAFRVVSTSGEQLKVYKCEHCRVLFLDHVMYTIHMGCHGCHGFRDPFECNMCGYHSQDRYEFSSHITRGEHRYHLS

SMILES: O=C1CC[C@H](N2C(=O)c3cccc4c(Cc5ccc(CN6CCOCC6)cc5)ccc2c34)C(=O)N1 (single isomer, unassigned) [Compound 1]
- IC50 (MM.1S): 0.036 nM
- more active than pomalidomide [1]: more than 5,000 fold
- IC50 [2]: 1.7 nM
- tumors versus pomalidomide 3000 μg/kg/day (H929 PomR tumors): smaller
- IC50 (DOHH-2): 2.73 nM
- Statistical Significance Compared to Vehicle (RPMI-8226 tumors; 30 μg/kg PO QD): 0.01
- Statistical Significance Compared to Vehicle (RPMI-8226 tumors; 100 μg/kg PO QD): 0.009
- IC50 (KMM-1): 0.059 nM
- time for the IKZF3 level to reach 50% of its pretreatment level (IKZF3; NCI-H929 tumor model, single dose): more than 48 hours
- duration of plasma and tumor concentrations (IKZF3; dosed at a 10-fold lower dose than CC-92480): measurable plasma and tumor concentrations for longer than CC-92480
- DC50 (IKZF1 [3]; 2 hour treatment): 0.021 nM
- Emax (IKZF1 [3]; NCI-H929, read-out: Mean Emax (%) ± SD, IKZF1 Degradation): 22.4 ± 3.1%
- Dmax (IKZF1 [3]; NCI-H929, read-out: maximal degradation of IKZF1): > 80%
- IKZF1 degradation (IKZF1 [3]; after 1 hour treatment): 50%
- potency greater than pomalidomide (IKZF1 [3]; at 2 hr): > 2000 fold
- degradation of steady state IKZF1 (IKZF1 [3]; multiple myeloma cells, within 1.5 hours at 0.3 nM): > 75%
- IC50 [4]: 30 nM
- tumor volume (KI-JK ALCL tumors): reduced tumor volume
- effect on GSPT1 [5]: no significant effect
- IKZF1 degradation (IKZF1 [6]): not degraded
- IC50 (SU-DHL-1): 0.415 nM
- more potent than pomalidomide ([7]; across a panel of cell lines (FIG. 32)): 2-3 magnitudes
- IC50 [7, 10]: < 1 nM
- maximal inhibition [7, 10]: greater than 50%
- more potent than pomalidomide ([7]; eight multiple myeloma cell lines): 1000 fold
- time of maximal Ikaros degradation (IKZF1 [8]; 0.001-100 nM, read at 1.5, 3 and 6 hours): 6 h
- Ikaros degradation with proteasome or neddylation inhibitor (IKZF1 [8]; with bortezomib (10 μM) or MLN-4924 (10 μM), 6 hours): not observed
- IC50 (Farage): 56.3 nM
- tumor volume versus pomalidomide 3000 μg/kg ([9]; 10, 30 and 100 μg/kg): reduced tumor volume more than pomalidomide
- Statistical Significance Compared to Vehicle ([9]; Dose Level (mg/kg) 10, PO QD): <0.0001
- Statistical Significance Compared to Vehicle ([9]; Dose Level (mg/kg) 30, PO QD): <0.0001
- Statistical Significance Compared to Vehicle ([9]; Dose Level (mg/kg) 100, PO QD): <0.0001
- IC50 (DL40): 0.91 nM
- IC50 (TMD8): 0.078 nM
- IC50 (HH): 58 nM
